The source of these data is patent US9023789B2, “Amylin analogs and pharmaceutical compositions thereof” (Novo Nordisk A/S, priority 2012, dated 2015).

≈ marks a conversion by molar mass, not a printed value. Like-named read-outs stand apart in the source and are kept apart here. Numbered stars: 1 amine (or outer) side, 2 acyl side, 3 side chain; on linkers, the order of the positions; unused ones are H or OH. Bridge positions count the residues as written; N and C are the ends. Side chains are listed from the residue outwards. Peptide text beside a SMILES is read from it. * marks the point of attachment. C20 diacid = O=C(O)CCCCCCCCCCCCCCCCCCC(=O)*; γGlu = O=C(O)[C@H](CCC(=O)[*:2])N[*:1]

Data set [1] has as its target T1, human amylin receptor (membranes from Amylin 3(a)/CRE-luc cells) (Homo sapiens, UniProt O60896+P30988).
T1 construct: expressed in transfected cells
T1 sequence (P30988 25-474): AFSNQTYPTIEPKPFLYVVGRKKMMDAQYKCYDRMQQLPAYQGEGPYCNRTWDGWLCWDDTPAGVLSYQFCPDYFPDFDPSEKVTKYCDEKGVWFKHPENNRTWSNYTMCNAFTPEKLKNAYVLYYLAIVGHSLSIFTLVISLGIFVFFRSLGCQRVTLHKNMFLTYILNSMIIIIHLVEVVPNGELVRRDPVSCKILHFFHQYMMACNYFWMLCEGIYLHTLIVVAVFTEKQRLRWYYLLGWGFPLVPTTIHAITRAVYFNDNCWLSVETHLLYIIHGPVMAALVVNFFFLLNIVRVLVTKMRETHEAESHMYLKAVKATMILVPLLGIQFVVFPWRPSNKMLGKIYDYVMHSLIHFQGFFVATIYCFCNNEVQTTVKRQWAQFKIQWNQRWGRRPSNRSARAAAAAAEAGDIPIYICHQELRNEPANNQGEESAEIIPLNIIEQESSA
T1 sequence (O60896 24-148 partner): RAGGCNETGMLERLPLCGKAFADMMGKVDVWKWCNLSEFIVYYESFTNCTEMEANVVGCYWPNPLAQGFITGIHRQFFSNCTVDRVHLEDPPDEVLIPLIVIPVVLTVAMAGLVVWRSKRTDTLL
In words: ASSAY (V) binding to the human amylin receptor (SPA, 125I-rat amylin).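 On all read-outs here: competition binding of cell membranes (35 ng/µL) mixed with SPA beads in 384-well plates at 40 µL total volume, read by scintillation counting.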 As to conditions: for IC50: Table 4, read-out: hAmylin-R bind IC50.

The nature of data set [2]: ASSAY (IV) determination of solubility. Format: physicochemical. Summed up:
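Dissolve polypeptide in water ([…] stock); combine 1:1 with each 100 mM buffer (glycylglycine pH 3.0/4.0/5.0; bistrispropane pH 6.0/6.5/7.0/7.5/8.0); hold 18 hours at room temperature; centrifuge; quantify polypeptide by UPLC.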

A further data set has as its target T2, rat calcitonin receptor (Rattus norvegicus, UniProt P32214).
T2 construct: expressed in transfected cells; host or cells: BHK tk'ts 13 (transient, FuGENE 6), membranes
T2 sequence (P32214 25-479 isoform P32214-2 limits assumed): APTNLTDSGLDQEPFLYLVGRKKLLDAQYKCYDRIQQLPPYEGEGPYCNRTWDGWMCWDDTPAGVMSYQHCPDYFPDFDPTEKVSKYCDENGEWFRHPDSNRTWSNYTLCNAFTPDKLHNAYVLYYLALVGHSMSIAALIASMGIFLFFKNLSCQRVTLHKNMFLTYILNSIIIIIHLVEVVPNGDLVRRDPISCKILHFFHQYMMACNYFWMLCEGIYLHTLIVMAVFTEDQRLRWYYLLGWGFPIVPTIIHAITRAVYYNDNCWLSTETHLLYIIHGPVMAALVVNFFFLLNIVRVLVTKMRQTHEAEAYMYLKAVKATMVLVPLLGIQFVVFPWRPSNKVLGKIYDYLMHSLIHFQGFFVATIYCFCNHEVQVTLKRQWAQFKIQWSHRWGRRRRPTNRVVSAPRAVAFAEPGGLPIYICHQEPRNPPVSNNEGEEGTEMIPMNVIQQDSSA
The data set is described as follows: ASSAY (VIII) binding to the rat calcitonin receptor. The conditions noted are these: Table 7, read-out: rCTR bind IC50. Summed up: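 Rat calcitonin receptor is expressed transiently in BHK tk′ts 13 cells cultured in DMEM with 10% FBS. Roughly two days (approximately 48 hours) post-transfection, cells are harvested for membrane preparation.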

[3] abbreviates: Table 5, selectivity, hCTR bind IC50 / hAmylin-R bind IC50.
Setting [4] is: Table 5a, selectivity, hCTR bind IC50 / hAmylin-R bind IC50.
Where [5] appears, read: Table 7, human binding selectivity, included for comparison.
Where [6] appears, read: Table 7a (preferred compounds), human binding selectivity, included for comparison.
The mark [7] stands for this setting: ratio of human calcitonin receptor binding IC50 to human amylin receptor binding IC50.
Setting [8] is: bistrispropane buffer, pH 6.5, read-out: Solubility pH 6.5 Concentration.
The mark [9] stands for this setting: bistrispropane buffer, pH 7.5, read-out: Solubility pH 7.5 Concentration.
[10] abbreviates: bistrispropane buffer, pH 6.0, read-out: Solubility pH 6.0 Concentration.
Where [11] appears, read: bistrispropane buffer, pH 7.0, read-out: Solubility pH 7.0 Concentration.
[12] abbreviates: bistrispropane buffer, pH 8.0, read-out: Solubility pH 8.0 Concentration.
Where [13] appears, read: glycylglycine buffer, pH 3.0, read-out: Solubility pH 3.0 Concentration.
[14] abbreviates: glycylglycine buffer, pH 4.0, read-out: Solubility pH 4.0 Concentration.
[15] abbreviates: glycylglycine buffer, pH 5.0, read-out: Solubility pH 5.0 Concentration.
Where [16] appears, read: Table 5b, selectivity, hCTR bind IC50 / hAmylin-R bind IC50.

As a reminder, the IC50 is the concentration that inhibits the measured activity by half. As for `CC[C@H](C)[C@H](NC(=O)[C@H](C)NC(=O)CNC(=O)[C@H](Cc1ccccc1)NC(=O)[C@H](CC(N)=O)NC(=O)[C@@H]1CCCN1C(=O)[C@H](CO)NC(=O)[C@H](CO)NC(=O)[C@H](Cc1c[nH]cn1)NC(=O)[C@H](CCCNC(=N)N)NC(=O)[C@H](CC(C)C)NC(=O)[C@H](Cc1ccccc1)NC(=O)[C@H](CCC(=O)O)NC(=O)[C@H](C)NC(=O)[C@H](CC(C)C)NC(=O)[C@H](CCCNC(=N)N)NC(=O)[C@H](CCC(N)=O)NC(=O)[C@@H](NC(=O)[C@H](C)NC(=O)[C@@H]1CSSC[C@H](NC(=O)[C@@H](N)CCCCNC(=O)CC[C@H](NC(=O)CC[C@H](NC(=O)CCCCCCCCCCCCCCCCCCC(=O)O)C(=O)O)C(=O)O)C(=O)N[C@@H](CC(N)=O)C(=O)N[C@@H]([C@@H](C)O)C(=O)N[C@@H](C)C(=O)N[C@@H]([C@@H](C)O)C(=O)N1)[C@@H](C)O)C(=O)N1CCC[C@H]1C(=O)N[C@@H](CO)C(=O)N[C@@H](CO)C(=O)N[C@H](C(=O)N[C@@H](CC(N)=O)C(=O)N[C@H](C(=O)NCC(=O)N[C@@H](CCCNC(=N)N)C(=O)N[C@@H](CCC(=O)O)C(=O)N[C@H](C(=O)N[C@@H](Cc1ccc(O)cc1)C(N)=O)[C@@H](C)O)C(C)C)[C@@H](C)O` [Example 105] (H-K([γGlu-γGlu-C20 diacid])CNTATCATQRLAEFLRHSSPNFGAIPSSTNVGRETY-NH2; disulfide 2-7; N-terminus assumed), the IC50 turned out to be 0.957 nM in data set [1] and 452 nM at rat calcitonin receptor. Also, the “Ratio hCT/hAmylin binding” value in data set [1] (setting [3]), in data set [1] (setting [4]), in data set [1] (setting [5]), in data set [1] (setting [6]) and in data set [1] (setting [7]) was 14.7 throughout. Further, the solubility at 18 h in data set [2] (setting [8]), in data set [2] (setting [9]), in data set [2] (setting [10]), in data set [2] (setting [11]), in data set [2] (setting [12]) and in data set [2] (setting [13]) was not below 200 µM each time. For the same molecule, the solubility at 18 h in data set [2] (setting [14]) and in data set [2] (setting [15]) was not below 200 µM in each case.
Turning to `CC[C@H](C)[C@H](NC(=O)[C@H](C)NC(=O)CNC(=O)[C@H](Cc1ccccc1)NC(=O)[C@H](CC(N)=O)NC(=O)[C@@H]1CCCN1C(=O)[C@H](CO)NC(=O)[C@H](CO)NC(=O)[C@H](Cc1c[nH]cn1)NC(=O)[C@H](CCCNC(=N)N)NC(=O)[C@H](CC(C)C)NC(=O)[C@H](Cc1ccccc1)NC(=O)[C@H](CC(=O)O)NC(=O)[C@H](C)NC(=O)[C@H](CC(C)C)NC(=O)[C@H](CCCNC(=N)N)NC(=O)[C@H](CCC(N)=O)NC(=O)[C@@H](NC(=O)[C@H](C)NC(=O)[C@@H]1CSSC[C@H](NC(=O)[C@@H](N)CCCCNC(=O)CC[C@H](NC(=O)CCCCCCCCCCCCCCCCCCC(=O)O)C(=O)O)C(=O)N[C@@H](CC(N)=O)C(=O)N[C@@H]([C@@H](C)O)C(=O)N[C@@H](C)C(=O)N[C@@H]([C@@H](C)O)C(=O)N1)[C@@H](C)O)C(=O)N1CCC[C@H]1C(=O)N[C@@H](CO)C(=O)N[C@@H](CO)C(=O)N[C@H](C(=O)N[C@@H](CC(N)=O)C(=O)N[C@H](C(=O)NCC(=O)N1CCC[C@H]1C(=O)N[C@@H](CCC(=O)O)C(=O)N[C@H](C(=O)N[C@@H](Cc1ccc(O)cc1)C(N)=O)[C@@H](C)O)C(C)C)[C@@H](C)O` [Example 123] (H-K([γGlu-C20 diacid])CNTATCATQRLADFLRHSSPNFGAIPSSTNVGPETY-NH2; disulfide 2-7; N-terminus assumed), the IC50 was determined as 0.196 nM in data set [1] and 18.6 nM at rat calcitonin receptor. The “Ratio hCT/hAmylin binding” value in data set [1] (setting [3]), in data set [1] (setting [4]), in data set [1] (setting [16]), in data set [1] (setting [5]), in data set [1] (setting [6]) and in data set [1] (setting [7]) was 16.7 in each case. For the same molecule, the solubility at 18 h in data set [2] (setting [8]), in data set [2] (setting [9]), in data set [2] (setting [10]), in data set [2] (setting [11]), in data set [2] (setting [12]) and in data set [2] (setting [13]) was not below 200 µM throughout. The solubility at 18 h in data set [2] (setting [14]) and in data set [2] (setting [15]) was not below 200 µM throughout.
With `CC[C@H](C)[C@H](NC(=O)[C@H](C)NC(=O)CNC(=O)[C@H](Cc1ccccc1)NC(=O)[C@H](CC(N)=O)NC(=O)[C@@H]1CCCN1C(=O)[C@H](CO)NC(=O)[C@H](CO)NC(=O)[C@H](Cc1c[nH]cn1)NC(=O)[C@H](CCCNC(=N)N)NC(=O)[C@H](CC(C)C)NC(=O)[C@H](Cc1ccccc1)NC(=O)[C@H](CC(=O)O)NC(=O)[C@H](C)NC(=O)[C@H](CC(C)C)NC(=O)[C@H](CCCNC(=N)N)NC(=O)[C@H](CCC(N)=O)NC(=O)[C@@H](NC(=O)[C@H](C)NC(=O)[C@@H]1CSSC[C@H](NC(=O)[C@@H](N)CCCCNC(=O)CC[C@H](NC(=O)CCCCCCCCCCCCCCCCCCC(=O)O)C(=O)O)C(=O)N[C@@H](CC(N)=O)C(=O)N[C@@H]([C@@H](C)O)C(=O)N[C@@H](C)C(=O)N[C@@H]([C@@H](C)O)C(=O)N1)[C@@H](C)O)C(=O)N1CCC[C@H]1C(=O)N[C@@H](CO)C(=O)N[C@@H](CO)C(=O)N[C@H](C(=O)N[C@@H](CC(N)=O)C(=O)N[C@H](C(=O)NCC(=O)N1CCC[C@H]1C(=O)N[C@@H](CCCNC(=N)N)C(=O)N[C@H](C(=O)N[C@@H](Cc1ccc(O)cc1)C(N)=O)[C@@H](C)O)C(C)C)[C@@H](C)O` [Example 129] (H-K([γGlu-C20 diacid])CNTATCATQRLADFLRHSSPNFGAIPSSTNVGPRTY-NH2; disulfide 2-7 (inferred); N-terminus assumed), the IC50 came out at 0.281 nM in data set [1] and 58.5 nM on rat calcitonin receptor. Besides, the “Ratio hCT/hAmylin binding” value in data set [1] (setting [3]) was 151.1; in data set [1] (setting [4]), 151.1; in data set [1] (setting [16]) it was 151.1; in data set [1] (Table 5c, selectivity, hCTR bind IC50 / hAmylin-R bind IC50), 151.1; in data set [1] (setting [5]) it was 151.1; in data set [1] (setting [6]) it was 151.1. Moreover, the “Ratio hCT/hAmylin binding” value in data set [1] (setting [7]) is recorded as 151.1. Also, the solubility at 18 h was not below 200 µM in data set [2] (setting [8]); 187 µM (≈ 829 µg/mL) in data set [2] (setting [9]); not below 200 µM in data set [2] (setting [10]); not below 200 µM in data set [2] (setting [11]); 102 µM (≈ 452 µg/mL) in data set [2] (setting [12]); not below 200 µM in data set [2] (setting [13]). For the same molecule, the solubility at 18 h in data set [2] (setting [14]) and in data set [2] (setting [15]) was not below 200 µM in each case.
